Biological target: T1, ITK (Homo sapiens, UniProt Q08881)
T1 construct: purchased Invitrogen PV3875
T1 sequence (Q08881 1-620): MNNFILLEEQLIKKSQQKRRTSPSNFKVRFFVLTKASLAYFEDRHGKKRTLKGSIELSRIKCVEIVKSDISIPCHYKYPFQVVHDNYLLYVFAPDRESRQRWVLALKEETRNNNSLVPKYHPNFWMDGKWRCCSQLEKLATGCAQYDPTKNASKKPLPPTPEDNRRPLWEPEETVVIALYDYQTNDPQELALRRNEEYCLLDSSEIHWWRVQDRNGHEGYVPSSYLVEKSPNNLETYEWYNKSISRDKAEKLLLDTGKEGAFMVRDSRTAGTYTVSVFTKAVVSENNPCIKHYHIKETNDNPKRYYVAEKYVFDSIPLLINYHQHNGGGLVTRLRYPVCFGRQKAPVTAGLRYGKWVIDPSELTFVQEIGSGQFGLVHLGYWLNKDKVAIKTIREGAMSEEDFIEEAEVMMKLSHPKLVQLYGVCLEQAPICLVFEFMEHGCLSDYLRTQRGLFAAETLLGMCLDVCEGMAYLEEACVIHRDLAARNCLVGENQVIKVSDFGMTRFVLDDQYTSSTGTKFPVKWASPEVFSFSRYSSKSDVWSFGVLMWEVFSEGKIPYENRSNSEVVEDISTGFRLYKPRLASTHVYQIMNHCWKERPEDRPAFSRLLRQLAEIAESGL
Experiment: ITK enzyme assay (Caliper or LCMS peptide phosphorylation)
Format: biochemical
Details: purified ITK (Invitrogen PV3875), 20 μM ATP, Ki by Morrison's quadratic equation
Description: The ability of purified ITK (Invitrogen PV3875) to catalyze peptide phosphorylation is monitored using a Caliper LabChip 3000 microfluidic unit (Caliper assay) or by liquid chromatography-mass spectrometry (LCMS) using a Waters Acquity system (LCMS assay). […] Reactions are quenched by the addition of 2,2′,2″,2′″-(ethane-1,2-diyldinitrilo)tetraacetic acid (50 mM final). Non-phosphorylated substrate and phosphorylated product peptides are separated and quantified using a Caliper LabChip 3000 instrument. […] Reactions are quenched by the addition of trichloroacetic acid (5% v/v final). Non-phosphorylated substrate and phosphorylated product peptides are separated by ultra performance LC and detected by a coupled triple quadrupole MS device applying multiple reaction monitoring (MRM) for quantification. The area of the MRM-extracted mass signal is used to assess the inhibition by test compounds. Equilibrium dissociation constant (Ki) values for ITK inhibitors are calculated from plots of activity vs. inhibitor concentration using Morrison's quadratic equation that accounts for the potential of tight binding, and by also applying the conversion factor that accounts for competitive inhibition and the concentration of ATP used in the assay relative to its apparent Michaelis constant (Km,app).

Going from `CC1(C)CCc2c(C(=O)Nc3cnn(C(CN4CCCC4=O)c4ccccc4)c3)n[nH]c2C1` (racemic) [Example 76, 6,6-dimethyl-N-(1-(2-(2-oxopyrrolidin-1-yl)-1-phenylethyl)-1H-pyrazol-4-yl)-4,5,6,7-tetrahydro-1H-indazole-3-carboxamide] to `CN(C)CCC(c1ccccc1)n1cc(NC(=O)c2n[nH]c3c2CCC2(CC2)C3)cn1` (single isomer, unassigned) [Example 16a, N-(1-(3-(dimethylamino)-1-phenylpropyl)-1H-pyrazol-4-yl)-1′,4′,5′,7′-tetrahydrospiro[cyclopropane-1,6′-indazole]-3′-carboxamide], the Ki falls from 4 nM to 0.5 nM (8-fold). The second binds more tightly here.

First: N#Cc1cccc(Cn2cc(NC(=O)c3n[nH]c4c3CCC(c3cn[nH]c3)C4)cn2)c1 (single isomer, unassigned) [Example 1a, N-(1-(3-cyanobenzyl)-1H-pyrazol-4-yl)-6-(1H-pyrazol-4-yl)-4,5,6,7-tetrahydro-1H-indazole-3-carboxamide]
Second: N#Cc1cccc(Cn2cc(NC(=O)c3n[nH]c4c3CC(c3cn[nH]c3)CC4)cn2)c1 (single isomer, unassigned) [Example 2a, N-(1-(3-cyanobenzyl)-1H-pyrazol-4-yl)-5-(1H-pyrazol-4-yl)-4,5,6,7-tetrahydro-1H-indazole-3-carboxamide]
The Ki of the first is 7.2-fold lower: 9.4 nM for the first, 68 nM for the second. The first binds more tightly here.

Compared with `N#Cc1cccc(Cn2cc(NC(=O)c3n[nH]c4c3CCC(c3cn[nH]c3)C4)cn2)c1` (single isomer, unassigned) [Example 1b, N-(1-(3-cyanobenzyl)-1H-pyrazol-4-yl)-6-(1H-pyrazol-4-yl)-4,5,6,7-tetrahydro-1H-indazole-3-carboxamide], `N#Cc1cccc(Cn2cc(NC(=O)c3n[nH]c4c3CC(c3cn[nH]c3)CC4)cn2)c1` (single isomer, unassigned) [Example 2b, N-(1-(3-cyanobenzyl)-1H-pyrazol-4-yl)-5-(1H-pyrazol-4-yl)-4,5,6,7-tetrahydro-1H-indazole-3-carboxamide] is 4.1-fold higher in Ki: 8.3 nM for the first, 34 nM for the second. The first binds more tightly here.

`N#Cc1cccc(Cn2cc(NC(=O)c3n[nH]c4c3CCC(c3cncnc3)C4)cn2)c1` (single isomer, unassigned) [Example 4a, N-(1-(3-cyanobenzyl)-1H-pyrazol-4-yl)-6-(pyrimidin-5-yl)-4,5,6,7-tetrahydro-1H-indazole-3-carboxamide] and `N#Cc1cccc(Cn2cc(NC(=O)c3n[nH]c4c3CCC(O)C4)cn2)c1` (single isomer, unassigned) [Example 5a, N-(1-(3-cyanobenzyl)-1H-pyrazol-4-yl)-6-hydroxy-4,5,6,7-tetrahydro-1H-indazole-3-carboxamide] are within 1.5-fold of each other in Ki: 360 nM for the first, 310 nM for the second.

First: N#Cc1cccc(Cn2cc(NC(=O)c3n[nH]c4c3CCC(c3cncnc3)C4)cn2)c1 (single isomer, unassigned) [Example 4b, N-(1-(3-cyanobenzyl)-1H-pyrazol-4-yl)-6-(pyrimidin-5-yl)-4,5,6,7-tetrahydro-1H-indazole-3-carboxamide]
Second: N#Cc1cccc(Cn2cc(NC(=O)c3n[nH]c4c3CCC(O)C4)cn2)c1 (single isomer, unassigned) [Example 5b, N-(1-(3-cyanobenzyl)-1H-pyrazol-4-yl)-6-hydroxy-4,5,6,7-tetrahydro-1H-indazole-3-carboxamide]
The Ki of the first is 1.6-fold lower: 240 nM for the first, 380 nM for the second. The first binds more tightly here.

First: CC1CCc2[nH]nc(C(=O)Nc3cnn(Cc4ccccc4)c3)c2C1 (single isomer, unassigned) [Example 8a, N-(1-benzyl-1H-pyrazol-4-yl)-5-methyl-4,5,6,7-tetrahydro-1H-indazole-3-carboxamide]
Second: O=C(Nc1cnn(Cc2ccccc2)c1)c1n[nH]c2c1CCC(CO)C2 (single isomer, unassigned) [Example 14a, N-(1-benzyl-1H-pyrazol-4-yl)-6-(hydroxymethyl)-4,5,6,7-tetrahydro-1H-indazole-3-carboxamide]
The Ki of the first is 1.7-fold lower: 70 nM for the first, 120 nM for the second. The first binds more tightly here.

Compared with `CC1CCc2[nH]nc(C(=O)Nc3cnn(Cc4ccccc4)c3)c2C1` (single isomer, unassigned) [Example 8b, N-(1-benzyl-1H-pyrazol-4-yl)-5-methyl-4,5,6,7-tetrahydro-1H-indazole-3-carboxamide], `O=C(Nc1cnn(Cc2ccccc2)c1)c1n[nH]c2c1CCC(CO)C2` (single isomer, unassigned) [Example 14b, N-(1-benzyl-1H-pyrazol-4-yl)-6-(hydroxymethyl)-4,5,6,7-tetrahydro-1H-indazole-3-carboxamide] is 3.7-fold lower in Ki: 77 nM for the first, 21 nM for the second.

`CN(C)CCC(c1ccccc1)n1cc(NC(=O)c2n[nH]c3c2CCC2(COC2)C3)cn1` (single isomer, unassigned) [Example 15a, N-(1-(3-(dimethylamino)-1-phenylpropyl)-1H-pyrazol-4-yl)-1,4,5,7-tetrahydrospiro[indazole-6,3′-oxetane]-3-carboxamide] and `CN(C)CCC(c1ccccc1)n1cc(NC(=O)c2n[nH]c3c2CCC2(CC2)C3)cn1` (single isomer, unassigned) [Example 16b, N-(1-(3-(dimethylamino)-1-phenylpropyl)-1H-pyrazol-4-yl)-1′,4′,5′,7′-tetrahydrospiro[cyclopropane-1,6′-indazole]-3′-carboxamide] are within 1.5-fold of each other in Ki: 11 nM for the first, 7.9 nM for the second.

Compared with `CN(C)CCC(c1ccccc1)n1cc(NC(=O)c2n[nH]c3c2CCC2(COC2)C3)cn1` (single isomer, unassigned) [Example 15b, N-(1-(3-(dimethylamino)-1-phenylpropyl)-1H-pyrazol-4-yl)-1,4,5,7-tetrahydrospiro[indazole-6,3′-oxetane]-3-carboxamide], `CN(C)CCC(c1ccccc1)n1cc(NC(=O)c2n[nH]c3c2C2CC2CC3)cn1` (single isomer, unassigned) [Example 26a, N-(1-(3-(dimethylamino)-1-phenylpropyl)-1H-pyrazol-4-yl)-3,4,5,5a,6,6a-hexahydrocyclopropa[e]indazole-1-carboxamide] is 50-fold lower in Ki: 100 nM for the first, 2 nM for the second.

Compared with `O=C(Nc1cnn(Cc2ccccc2)c1)c1n[nH]c2c1C1CC1CC2` (single isomer, unassigned) [Example 23a, N-(1-benzyl-1H-pyrazol-4-yl)-3,4,5,5a,6,6a-hexahydrocyclopropa[e]indazole-1-carboxamide], `CC[C@@H](c1ccccc1)n1cc(NC(=O)c2n[nH]c3c2C2CC2CC3)cn1` (single isomer, unassigned) [Example 25a] is 14-fold lower in Ki: 24 nM for the first, 1.7 nM for the second. The second binds more tightly here.

First: O=C(Nc1cnn(Cc2ccccc2)c1)c1n[nH]c2c1C1CC1CC2 (single isomer, unassigned) [Example 23b, N-(1-benzyl-1H-pyrazol-4-yl)-3,4,5,5a,6,6a-hexahydrocyclopropa[e]indazole-1-carboxamide]
Second: CC[C@@H](c1ccccc1)n1cc(NC(=O)c2n[nH]c3c2C2CC2CC3)cn1 (single isomer, unassigned) [Example 25b]
The Ki of the first is 5.9-fold higher: 550 nM for the first, 94 nM for the second.

First: CC[C@@H](c1ccccc1)n1cc(NC(=O)c2n[nH]c3c2CC2CC2C3)cn1 (single isomer, unassigned) [Example 24a]
Second: CN(C)CCC(c1ccccc1)n1cc(NC(=O)c2n[nH]c3c2C2CC2CC3)cn1 (single isomer, unassigned) [Example 26b, N-(1-(3-(dimethylamino)-1-phenylpropyl)-1H-pyrazol-4-yl)-3,4,5,5a,6,6a-hexahydrocyclopropa[e]indazole-1-carboxamide]
The Ki of the first is 4.9-fold lower: 9.4 nM for the first, 46 nM for the second. The first binds more tightly here.

Compound `CC[C@@H](c1ccccc1)n1cc(NC(=O)c2n[nH]c3c2CC2CC2C3)cn1` (single isomer, unassigned) [Example 24b] has a Ki of 3.5 nM.

From patent US20160326142A1, “PYRAZOLE CARBOXAMIDE COMPOUNDS, COMPOSITIONS AND METHODS OF USE” (Genentech, Inc., priority 2012, published 2016)
